In PubChem BioAssay (NCI):
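Each compound was tested at five concentrations against cells in 96-well plates for 48 hours. GI50 marks 50% less growth. Definition used: TGI = concentration required for complete inhibition of growth.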

What was measured:
Assay in all cases: NCI tumour cell line growth inhibition, 48 h
MCF7 breast = system: MCF7 breast
SF-295 CNS = system: SF-295 CNS
OVCAR-3 ovarian = system: OVCAR-3 ovarian
ACHN renal = system: ACHN renal
M14 melanoma = system: M14 melanoma
OVCAR-8 ovarian = system: OVCAR-8 ovarian
TK-10 renal = system: TK-10 renal
A549 NSCLC = system: A549 NSCLC
UACC-257 melanoma = system: UACC-257 melanoma
A498 renal = system: A498 renal

| Compound | TGI (MCF7 breast) | TGI (SF-295 CNS) | TGI (OVCAR-3 ovarian) | TGI (ACHN renal) | TGI (M14 melanoma) | TGI (OVCAR-8 ovarian) | TGI (TK-10 renal) | TGI (A549 NSCLC) | TGI (UACC-257 melanoma) | TGI (A498 renal) | GI50 (MCF7 breast) | GI50 (OVCAR-3 ovarian) | GI50 (TK-10 renal) | GI50 (A549 NSCLC) | GI50 (UACC-257 melanoma) | GI50 (A498 renal) |
| --- | --- | --- | --- | --- | --- | --- | --- | --- | --- | --- | --- | --- | --- | --- | --- | --- |
| OC1(c2ccc(Cl)cc2)c2ccccc2C2=NCc3ccccc3CN21 (stereo not drawn) | 17.9 µM | 28.8 µM | 6.33 µM | 17.8 µM | 8.08 µM | 24.8 µM | 28.9 µM | 19.2 µM | 28.3 µM | 30.2 µM | – | – | – | – | – | – |
| Cc1nc2sccn2c1C(=O)OCCOCCOCCOCCOC(=O)c1c(C)nc2sccn12 | > 100 µM | > 100 µM | > 100 µM | > 100 µM | > 100 µM | > 100 µM | > 100 µM | > 100 µM | > 100 µM | > 100 µM | – | – | – | – | – | – |
| O=c1c(S(=O)(=O)Oc2ccccc2)coc2cc(F)ccc12 | > 100 µM | > 100 µM | > 100 µM | > 100 µM | > 100 µM | > 100 µM | > 100 µM | > 100 µM | > 100 µM | – | – | – | – | – | – | – |
| CCOC(=O)c1ccc(NC(NC(=O)CC)(C(F)(F)F)C(F)(F)F)cc1 | > 100 µM | > 100 µM | > 100 µM | > 100 µM | > 100 µM | > 100 µM | > 100 µM | > 100 µM | > 100 µM | > 100 µM | – | – | – | – | – | – |
| CC12CCC(C1)C(C)(C)C2OC(=O)c1ccccc1C(=O)O (stereo not drawn) | > 100 µM | > 100 µM | – | > 100 µM | > 100 µM | > 100 µM | > 100 µM | > 100 µM | > 100 µM | > 100 µM | – | – | – | – | – | – |
| N#CI1OC(C(F)(F)F)(C(F)(F)F)c2ccccc21 | 42.3 µM | > 100 µM | 29.2 µM | 36.9 µM | 36.2 µM | 30.5 µM | 39.1 µM | > 100 µM | 51.8 µM | > 100 µM | – | – | – | – | – | – |
| C/C(NC(=O)c1ccccc1)=C(/C(=O)c1ccccc1)[C@@H]1OC(C)(C)O[C@@H]1[C@H]1COC(C)(C)O1 | > 100 µM | > 100 µM | > 100 µM | > 100 µM | > 100 µM | > 100 µM | > 100 µM | > 100 µM | > 100 µM | > 100 µM | – | – | – | – | – | – |
| CCCN(CCC)c1c([N+](=O)[O-])cc(C(=O)N(C)C)cc1[N+](=O)[O-] | – | > 100 µM | > 100 µM | 30.7 µM | > 100 µM | > 100 µM | > 100 µM | > 100 µM | > 100 µM | – | – | – | – | – | – | – |
| CC(C)=CCC/C(C)=C/CC/C(C)=C/CSc1ccc(Cl)cc1C(=O)O | 32.8 µM | 31.4 µM | 30.7 µM | 35.9 µM | 36.5 µM | 42.1 µM | 37.6 µM | 30.3 µM | 82.2 µM | 38.7 µM | – | – | – | – | – | – |
| C=CCc1cccc2cc(C(=O)Nc3nc(C45CC6CC(CC(C6)C4)C5)cs3)c(=O)oc12 | > 100 µM | 31.3 µM | 67.6 µM | 33.9 µM | – | > 100 µM | 89.8 µM | > 100 µM | > 100 µM | 70.6 µM | – | – | – | – | – | – |
| C/C(=N\n1c(Cc2ccccc2)n[nH]c1=O)c1ccc([N+](=O)[O-])cc1 | > 100 µM | > 100 µM | > 100 µM | – | > 100 µM | > 100 µM | > 100 µM | > 100 µM | > 100 µM | – | – | – | – | – | – | – |
| CC(C)(Oc1ccc(C(=O)c2ccc(Cl)cc2)cc1Cl)C(=O)N1CCN(c2ccccc2)CC1 | – | > 100 µM | > 100 µM | – | > 100 µM | > 100 µM | > 100 µM | > 100 µM | > 100 µM | > 100 µM | – | – | – | – | – | – |
| O=C(c1ccccc1)n1[nH]c(=O)n(-c2ccc(Cl)cc2)c1=O | > 100 µM | > 100 µM | > 100 µM | > 100 µM | > 100 µM | > 100 µM | > 100 µM | > 100 µM | > 100 µM | – | – | – | – | – | – | – |
| OCCNc1nc2c(N3CCCC3)nc(N3CCNCC3)nc2nc1NCc1ccccc1 | 28.3 µM | 32.7 µM | 18.6 µM | 28.9 µM | 29.4 µM | 30.5 µM | 28.7 µM | 31.4 µM | 33.5 µM | – | – | – | – | – | – | – |
| CCCC1C(C#N)(C#N)C(C#N)=C(N)C1(C)C(C)=O (stereo not drawn) | > 100 µM | > 100 µM | – | > 100 µM | > 100 µM | > 100 µM | > 100 µM | > 100 µM | > 100 µM | > 100 µM | – | – | – | – | – | – |
| O=[N+]([O-])c1ccc(Cl)cc1N/N=C/c1cccs1 | > 100 µM | > 100 µM | > 100 µM | > 100 µM | > 100 µM | > 100 µM | > 100 µM | > 100 µM | > 100 µM | – | – | – | – | – | – | – |
| Clc1cccc(N=C/C=C/Nc2cccc(Cl)c2)c1 | 43.6 µM | 24.4 µM | 45.4 µM | – | – | 38.9 µM | > 100 µM | 83.9 µM | 32.2 µM | 49.7 µM | – | – | – | – | – | – |
| CCCCNCC(O)c1cc(-c2ccc(C(F)(F)F)cc2)nc(-c2ccc(C(F)(F)F)cc2)c1 (stereo not drawn) | 3.54 µM | – | 3.66 µM | – | – | – | 3.83 µM | 3.36 µM | 3.57 µM | 2.86 µM | 1.79 µM | 1.98 µM | 2.16 µM | 1.64 µM | 1.83 µM | 1.38 µM |
| Oc1ccccc1C=Nc1ccccc1N=Cc1ccccc1O | – | > 100 µM | > 100 µM | > 100 µM | > 100 µM | > 100 µM | > 100 µM | > 100 µM | > 100 µM | – | – | – | – | – | – | – |
| O=C1C=C(NCCc2cc(Br)c(O)c(Br)c2)C(=O)c2[nH]cnc21 | 48.9 µM | > 100 µM | > 100 µM | > 100 µM | 57.7 µM | > 100 µM | > 100 µM | > 100 µM | 44.4 µM | – | – | – | – | – | – | – |
| Cc1[nH]c(=O)[nH]c(=O)c1C(=O)N(CCO)Cc1ccccc1 | > 100 µM | > 100 µM | > 100 µM | > 100 µM | > 100 µM | – | > 100 µM | – | > 100 µM | > 100 µM | – | – | – | – | – | – |
| Clc1ccc(-c2nn3c(C45CC6CC(CC(C6)C4)C5)nnc3s2)cc1 | – | > 100 µM | > 100 µM | > 100 µM | > 100 µM | – | > 100 µM | > 100 µM | – | > 100 µM | – | – | – | – | – | – |
| COc1cc(C2C3=C(N=C4SC(C(C)=O)=C(C)N42)c2ccccc2CC3)cc(OC)c1OC (stereo not drawn) | > 100 µM | > 100 µM | > 100 µM | > 100 µM | > 100 µM | > 100 µM | – | > 100 µM | > 100 µM | > 100 µM | – | – | – | – | – | – |
